Patent publication US20240226234A1, “WNT5A PEPTIDES FOR THE TREATMENT OF ACUTE M[…]” (W[…], priority 2021, published 2024)
No end group written: not given here. *: point of attachment. For = O=C*

Assays:
Assay type in all cases: cell-based, human
[1] = system: K562 cells; experiment: Transwell chemotaxis assay toward CXCL12, K562 cells; conditions: K562, Foxy-5 100 μM 72 h pretreatment, CXCL12 100 ng/mL, 24 h
Description: Leukemic cell lines, pretreated or not with Foxy-5 (72 hours of stimulation) were tested for chemotaxis in Transwell-based assays for Chemotaxis (6.5 mm diameter, 8 μm pore size; Corning). Polycarbonate membranes were incubated with poly-L-lysine (1 mg/mL) for 1 hour at 37° C. followed by saline buffer washing. Briefly, cells were collected, washed with media containing bovine serum albumin (0.1% BSA; Sigma), and then seeded at a density of 5×10^5 cells into the upper chamber of the transwell. The lower chamber was filled with media containing 0.5% BSA (negative control), media containing 10% FBS (positive control) and media 5 containing 0.5% BSA with CXCL12 (100 ng/ml; Peprotech) (Melo et al., 2014). Following 6 h or 24 h of incubation at 37° C., cells that migrated into the lower chamber were collected, centrifuged, resuspended in saline buffer and counted. The number of migrated cells was expressed as a percentage of the input, i.e., the cells number applied directly to the lower compartment in parallel wells. The migration of cells was normalized to 100%+/−standard deviation (SD) of triplicates (Favaro et al., 2013).
We investigated whether restoring of WNT5A could enable the modulation CXCL12-induced chemotaxis of leukemia cells. […]

[2] = system: HL60 cells; experiment: Cell cycle assay, HL60 cells; conditions: 72 h
Description: (§1) A panel of human myeloid leukemia cell lines (HL60, K562, KG1a, THP1 and U937) and HS-5 mesenchymal stromal cells lineage were cultured in Roswell Park Memorial Institute medium-1640 (RPMI; Sigma) containing 10% Fetal Bovine Serum (Gibco), glutamine (2 mM; Sigma), penicillin (100 μg/mL; Sigma), streptomycin (100 μg/mL; Sigma), and amphotericin B (0.25 μg/mL; Gibco). The cells were maintained in a humidified atmosphere at 37° C. and 5% CO2 and the experiments were performed when they reached exponential growth. For the assays, cells were seeded on a 24-well plate and treated or not with Foxy-5 for 72 hours.
Cells treated with Foxy or with vehicle were collected and fixed, at least, 24 hours in 70% ethanol. DNA was stained with a buffer containing iodide propidium (20 μg/mL; Sigma) and RNase A (10 μg/mL; Sigma). Cell fluorescence was detected with a FACSCalibur flow cytometer (BD). The proportions of cells in the cell cycle phases were analyzed by Modifit (Verify Software House Inc), according to DNA distributions.
As we observed a reduction in the leukemic proliferation after Foxy-5 treatment, we also analyzed the cell cycle phases. Leukemia cell lines were treated for 72 hours with Foxy-5, at doses of 50 μM and 100 μM, or vehicle, stained with the Piper buffer containing RNAse and iodeto propidium and then analyzed by flow cytometry.

[3] = system: HL60 cells; experiment: ROS production by flow cytometry, HL60 cells; conditions: 72 h; for ROS production (MFI): HL60, 2D culture on HS5 stromal cells; for ROS production (mean fluorescence intensity): HL60, monoculture
Description: as §1
Cells treated with Foxy or with vehicle were collected and intracellular ROS generation was measured by flow cytometry following staining with DCFDA ([…]; Sigma). Acquisition of cells was performed on a FACScalibur flow cytometer (BD) and analysis was carried out using the FlowJo software.
Leukemia cell lines were treated for 72 h with Foxy-5, at doses of 50 and 100 μM, or vehicle, stained with DCFHA dye, and analyzed by flow cytometry.

[4] = system: K562 cells; experiment: Actin polymerization assay, K562 cells; conditions: K562, Foxy-5 100 μM 72 h
Description: F-actin polymerization was analyzed in treated leukemic cell lines using AlexaFluor 633-labeled phalloidin (A22284, Invitrogen) before and after CXCL12 stimulation. The cells were stimulated with CXCL12 (300 ng/ml; Peprotech) in serum-free media at 37 °C for 30 and 120 seconds. The reaction was stopped by adding 3 volumes of paraformaldehyde (3.7%) at room temperature for 10 min, then washed and permeabilized on ice. Cells were stained with 633-phalloidin (2 mg/mL). Flow cytometric data were analyzed using a FACS flow cytometer (BD) followed by FlowJo software analysis. The F-actin content obtained were normalized calculating the ratio between each stimulated cells-mean fluorescence intensity (MFI) values and the nonstimulated cells MFI from the basal levels of the control cells and expressed as fold change.
Therefore, we performed a flow cytometry analysis to evaluate whether Foxy-5 treatment would be able to disrupt actin polymerization. Leukemia cell lines were treated with Foxy-5 (100 μM) or vehicle during 72 hours, stimulated with CXCL12 (300 ng/ml) for 30 or 120 seconds, and stained with […] for detection of actin polymerization by flow cytometry. […] Thus, a significant reduction of actin polymerization was shown after Foxy-5 treatment when compared to untreated cells after 30 seconds of CXCL12 induction (P<. 001).

[5] = system: PI3K and MAPK pathways; experiment: Western blot of PI3K and MAPK pathway proteins, U937 cells; conditions: U937, Foxy-5 50 μM or 100 μM, 72 h
Description: Equal amounts of protein were resolved by sodium dodecyl sulphate-polyacrylamide gel electrophoresis and transferred onto nitrocellulose membranes (Millipore). Detection was carried out with the chemiluminescent substrate using an ECL Plus (GE-Healthcare). Monoclonal antibodies against P70S6K (sc-8418) and polyclonal antibodies against Actin (sc-1616), AKT1/2/3 (sc-8312), BAX (sc-493), BCL-XL (sc-8392), GAPDH (sc-32,233), p-AKT1/2/3 (sc-33,437) and p-P70S6K (sc-7984) were purchased from Santa Cruz Biotechnology. ERK1/2 ([pT185/Y187]; 44-680G) and ERK1/2 (44-654G) from Invitrogen. Quantitative blots were carried out using the UN-SCAN-IT densitometer software.
Based on the above results, the activity of proteins of PI3K and MAPK pathways were then investigated in a western blot. Briefly, U937 and K562 cells were seeded and treated with Foxy-5 (50 μM or 100 μM) or vehicle for 72 hours. Then, equal amounts of protein were used for total extracts followed by electrophoresis on 12% SDS polyacrylamide gels under reducing conditions, transferred to nitrocellulose membranes, blocked with 10% skimmed milk in TBS-0.1% Tween for 1 hour, stained with appropriate primary and secondary antibodies. The membranes were visualized with chemiluminescence using an ECL Plus (GE-Healthcare). Quantitative analyses of the optical intensities of the protein bands were determined with Un-Scan-It Gel 6.1 (Silk Scientific Inc.).

Foxy-5: Formylated hexapeptide fragment of WNT5A: MDGCEL (SEQ. ID. NO. 3) with methionine in position 1 as N-formyl methionine; WNT5A-mimicking compound (For-MDGCEL; listed as Homo sapiens)
CXCL12-induced chemotaxis (migrated cells as percentage of the input, average) [1]: 1.52%
cells in G0/G1 cell cycle phase (average) ([2]; HL60, co-cultured with HS5 stromal cells, Foxy-5 50 μM): 53.47%
cells in G0/G1 cell cycle phase (average) ([2]; HL60, co-cultured with HS5 stromal cells, Foxy-5 100 μM): 70.68%
cells in G0/G1 cell cycle phase (average) ([2]; HL60, monoculture, Foxy-5 50 μM): 51.57%
cells in G0/G1 cell cycle phase (average) ([2]; HL60, monoculture, Foxy-5 100 μM): 53.02%
ROS production (MFI) ([3]; Foxy-5 50 μM): 28.52 (range 26.37-30.00) MFI
ROS production (MFI) ([3]; Foxy-5 100 μM): 28.50 (range 25.03-30.30) MFI
ROS production (mean fluorescence intensity) ([3]; Foxy-5 50 μM): 17.45 (range 16.40-19.30) MFI
ROS production (mean fluorescence intensity) ([3]; Foxy-5 100 μM): 10.32 (range 10.10-10.80) MFI
F-actin content following CXCL12 stimulation ([4]; CXCL12 300 ng/ml for 30 seconds): 1.37 fold increase
F-actin content following CXCL12 stimulation ([4]; CXCL12 300 ng/ml for 120 seconds): 1.31 fold increase
phosphorylation level of AKT compared to vehicle-treated cells [5]: lower phosphorylation levels
phosphorylation level of ERK compared to vehicle-treated cells [5]: lower phosphorylation levels
protein level of cyclin D1 compared to vehicle-treated cells [5]: reduced protein level
